These are literature values, as cited in patent US20060069069A1, “Methods and compositions for the administration of calcium chelators, bisphosponates and/or citrate compounds and their pharmaceutical uses” (Nanobac Pharmaceuticals, Inc., priority 2004, published 2006).

In the data set the test system is bone resorption. The conditions noted are these: versus etidronate; both in vitro and in vivo.

Each structure is given as a SMILES string.

Turning to `NCCCC(O)(P(=O)(O)O)P(=O)(O)O` [alendronate], the “potency relative to etidronate for the prevention of bone resorption” value is “approximately 700 fold”.
